Measured values reported in PubChem BioAssay AID2060909 (Molecular Pharmacology Branch, DTP, NCI, 2025).

Tested on: 362531-283-R-J2-PDC complex spheroid viability
Experiment: Anticancer human tumor 362531-283-R-J2-PDC patient-derived colon adenocarcinoma cell line growth inhibition [RAS]
Conditions: for IC50: curve of first compound; for viability, T/C: stronger effect = lower value
Excerpt: RAS pathway inhibitors in Combinations in Complex Spheroids
A high-throughput screen of multi-cell type tumor spheroids was designed to identify active combinations of RAS pathway inhibitors and targeted small molecules. Complex spheroids include a stromal component modeled by human endothelial cells (HUVEC) and fibroblasts modeled by human mesenchymal stem cells (MSCs). The concentration ranges selected for each drug and investigational agent were based upon clinically achievable concentrations if the clinical Cmax of the agent was known.
Compounds. The drugs and investigational agents: abemaciclib (NSC768073), cobimetinib (NSC768068), divarasib (GDC6063, NSC841802), docetaxel (NSC628503), GDC-1971 (RLY-1971, NSC841576), gemcitabine (NSC613327), inavolisib (NSC800729), ipatasertib (NSC767898), KB-0742 (NSC834161), MRTX-1133 (NSC836407), osimertinib (NSC779217), RMC-4630 (NSC839698), RMC-6236 (NSC851965), RMC-6291 (NSC852671), Ro-3306 (NSC812927), sapanisertib (NSC764658), SN-38 (NSC673596), staurosporine (NSC755774), SY5609 (NSC837396), and tovorafenib (DAY101, NSC766906), were obtained from the National Cancer Institute (NCI) Developmental Therapeutics Program Chemical Repository. The FDA-approved anticancer drug set is available from the NCI Developmental Therapeutics Program. […] The stock solutions were prepared in dimethyl sulfoxide (DMSO, Sigma-Aldrich, St. Louis, MO, cat. D2650) at 800-fold the tested concentration and stored at -70 degrees C prior to their use. All drugs and investigational agents were tested over a range starting from a high concentration at or near the clinical Cmax and decreasing in half-log increments. If the clinical Cmax for an agent had not been determined, the highest concentration tested was 10 microM.
Cell Culture. All cells were maintained in an incubator at 37 degrees C and 5% CO2 with 95% humidity. The PDC lines were cultured according to standard operating procedures established by the NCI PDMR. All PDCs were thawed and cultured in Matrigel-coated flasks prepared with a working solution of 1X Ham's F-12 nutrient mix, without supplementation (Invitrogen, Waltham, MA, cat. 11765054), 100 U/mL penicillin-streptomycin (Invitrogen, cat. 15140122), and 2.5% Matrigel (Corning Inc., Corning, NY, cat. 354248) for the first three passages. The 362531-283-R-J2-PDC and 782815-120-R-J1-PDC lines were cultured in 6C/Colon 1B media, which includes advanced DMEM/F-12 (Thermo Fisher Scientific, cat. 12634028), 10 mM HEPES (Thermo Fisher Scientific, cat. 15630080), 1X GlutaMAX supplement (Thermo Fisher Scientific, cat. 35050061), 0.1 mg/mL primocin (InvivoGen, San Diego, CA, cat. ant-pm-2), 10% defined fetal bovine serum, heat inactivated (HyClone Laboratories Inc., Logan, UT, cat. SH30070.03HI), 50% L-WRN conditioned media (ATCC, cat. CRL-3276), 1.25 mM N-Acetyl-L-cysteine (Sigma-Aldrich, cat. A9165), 10 mM nicotinamide (Sigma-Aldrich, cat. N0636), 1X B-27 supplement (Thermo Fisher Scientific, cat. 17504044), 1X N-2 supplement (Thermo Fisher Scientific, cat. 17502048), 50 ng/mL human EGF (Thermo Fisher Scientific, cat. PHG0311), and 10 microM Y-27632 dihydrochloride (Tocris Bioscience, cat. 1254). The K12877-001-R-J1-PDC line was cultured in 6I media, which includes all 6C/Colon 1B media plus 10 ng/mL human FGF-10 (PeproTech, cat. 100-26), 1 ng/mL human FGF-2 (PeproTech, cat. 100-18B), 1 µM prostaglandin E2 (Tocris Bioscience, cat. 2296), […] hydrocortisone (Sigma-Aldrich, cat. H4001), and […] bovine insulin (Sigma-Aldrich, cat. I6634). The K86415-001-R-J1-PDC line was cultured in 6D media, which includes all 6C/Colon 1B media components minus the L-WRN conditioned media. The 485176-168-R4-J1-PDC was cultured in PANC media, which includes all 6C/Colon 1B media plus 100 ng/mL human FGF-10 (PeproTech, cat. 100-26), 500 nM SB-431542 (Selleckchem, cat. S1067), and 10 nM gastrin (Tocris Bioscience, cat. 3006). […]

[1] = second compound 0.0316 µM, first compound 0.0316 µM
[2] = second compound 0.0316 µM, first compound 0.1 µM
[3] = second compound 0.0316 µM, first compound 0.316 µM
[4] = second compound 0.0316 µM, first compound 1 µM
[5] = second compound 0.0316 µM, first compound 3.16 µM
[6] = second compound 0.0316 µM, first compound 10 µM
[7] = second compound 0.1 µM, first compound 0.0316 µM
[8] = second compound 0.1 µM, first compound 0.1 µM
[9] = second compound 0.1 µM, first compound 0.316 µM
[10] = second compound 0.1 µM, first compound 1 µM
[11] = second compound 0.1 µM, first compound 3.16 µM
[12] = second compound 0.1 µM, first compound 10 µM
[13] = second compound 0.316 µM, first compound 0.0316 µM
[14] = second compound 0.316 µM, first compound 0.1 µM
[15] = second compound 0.316 µM, first compound 0.316 µM
[16] = second compound 0.316 µM, first compound 1 µM
[17] = second compound 0.316 µM, first compound 3.16 µM
[18] = second compound 0.316 µM, first compound 10 µM
[19] = second compound 1 µM, first compound 0.0316 µM
[20] = second compound 1 µM, first compound 0.1 µM
[21] = second compound 1 µM, first compound 0.316 µM
[22] = second compound 1 µM, first compound 1 µM
[23] = second compound 1 µM, first compound 3.16 µM
[24] = second compound 1 µM, first compound 10 µM
[25] = second compound 3.16 µM, first compound 0.0316 µM
[26] = second compound 3.16 µM, first compound 0.1 µM
[27] = second compound 3.16 µM, first compound 0.316 µM
[28] = second compound 3.16 µM, first compound 1 µM
[29] = second compound 3.16 µM, first compound 3.16 µM
[30] = second compound 3.16 µM, first compound 10 µM
[31] = second compound 10 µM, first compound 0.0316 µM
[32] = second compound 10 µM, first compound 0.1 µM
[33] = second compound 10 µM, first compound 0.316 µM
[34] = second compound 10 µM, first compound 1 µM
[35] = second compound 10 µM, first compound 3.16 µM
[36] = second compound 10 µM, first compound 10 µM
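Also: spheroids exposed to the agents for 7 days before readout.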
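For viability, T/C in this document: luminescence viability as percent of DMSO vehicle control wells.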

In the case of CC1(O)CCCC1n1c(=O)c(C(F)F)cc2cnc(NC3CCN(S(C)(=O)=O)CC3)nc21 (stereo unspecified) + C#Cc1c(F)ccc2cc(O)cc(-c3ncc4c(N5CC6CCC(C5)N6)nc(OCC56CCCN5CC(F)C6)nc4c3F)c12, the IC50 (second compound 0.0316 µM) is reported as over 10000 nM, the IC50 (second compound 0.1 µM) is reported as over 10000 nM and the IC50 (second compound 0.316 µM) is reported as 3080 nM. The IC50 (second compound 1 µM) was 3430 nM, the IC50 (second compound 3.16 µM) was 1290 nM and the IC50 (second compound 10 µM) was under 31.6 nM. For the same compound, the viability, T/C [1] was 92.6%, the viability, T/C [2] was 91.8% and the viability, T/C [3] was 71.8%. For the same compound, the viability, T/C [4] was 71%, the viability, T/C [5] was 62.3% and the viability, T/C [6] was 81%. For the same compound, the viability, T/C [7] was 95.4%, the viability, T/C [8] was 92.5% and the viability, T/C [9] was 80.9%. The viability, T/C [10] was 73.4%, the viability, T/C [11] was 68.7% and the viability, T/C [12] was 73.2%. The viability, T/C [13] was 82.7%, the viability, T/C [14] was 89.1% and the viability, T/C [15] was 74.6%. For the same compound, the viability, T/C [16] was 66.4%, the viability, T/C [17] was 49.8% and the viability, T/C [18] was 37%. For the same compound, the viability, T/C [19] was 82.8%, the viability, T/C [20] was 80.5% and the viability, T/C [21] was 67.7%. The viability, T/C [22] was 69.3%, the viability, T/C [23] was 53.9% and the viability, T/C [24] was 20.4%. It also gave a viability, T/C [25] of 59.2%, a viability, T/C [26] of 59.8% and a viability, T/C [27] of 61.4%. It also gave a viability, T/C [28] of 54.7%, a viability, T/C [29] of 32% and a viability, T/C [30] of 7.49%. The viability, T/C [31] was 45.1%, the viability, T/C [32] was 50.7% and the viability, T/C [33] was 29.9%. It also gave a viability, T/C [34] of 29.7%, a viability, T/C [35] of 24.7% and a viability, T/C [36] of 5.91%.
For CCN1CCN(Cc2ccc(Nc3ncc(F)c(-c4cc(F)c5nc(C)n(C(C)C)c5c4)n3)nc2)CC1 + C#Cc1c(F)ccc2cc(O)cc(-c3ncc4c(N5CC6CCC(C5)N6)nc(OCC56CCCN5CC(F)C6)nc4c3F)c12, the IC50 (second compound 0.0316 µM) was 504 nM, the IC50 (second compound 0.1 µM) was 356 nM and the IC50 (second compound 0.316 µM) was 187 nM. It also gave an IC50 (second compound 1 µM) of 104 nM, an IC50 (second compound 3.16 µM) of 24.1 nM and an IC50 (second compound 10 µM) of under 3.16 nM. The viability, T/C (second compound 0.0316 µM, first compound 0.00316 µM) was 89.4%, the viability, T/C (second compound 0.0316 µM, first compound 0.01 µM) was 98.7% and the viability, T/C [1] was 98.8%. It also gave a viability, T/C [2] of 70.3%, a viability, T/C [3] of 62.4% and a viability, T/C [4] of 36.9%. The viability, T/C (second compound 0.1 µM, first compound 0.00316 µM) was 93.7%, the viability, T/C (second compound 0.1 µM, first compound 0.01 µM) was 93.6% and the viability, T/C [7] was 81.4%. The viability, T/C [8] was 63%, the viability, T/C [9] was 57.4% and the viability, T/C [10] was 28.8%. The viability, T/C (second compound 0.316 µM, first compound 0.00316 µM) was 93.8%, the viability, T/C (second compound 0.316 µM, first compound 0.01 µM) was 89.2% and the viability, T/C [13] was 85.4%. It also gave a viability, T/C [14] of 58.7%, a viability, T/C [15] of 42% and a viability, T/C [16] of 21.9%. It also gave a viability, T/C (second compound 1 µM, first compound 0.00316 µM) of 86.2%, a viability, T/C (second compound 1 µM, first compound 0.01 µM) of 88% and a viability, T/C [19] of 74.1%. For the same compound, the viability, T/C [20] was 50.5%, the viability, T/C [21] was 29.8% and the viability, T/C [22] was 20%. For the same compound, the viability, T/C (second compound 3.16 µM, first compound 0.00316 µM) was 77.6%, the viability, T/C (second compound 3.16 µM, first compound 0.01 µM) was 60.2% and the viability, T/C [25] was 48.5%. For the same compound, the viability, T/C [26] was 32.1%, the viability, T/C [27] was 22.4% and the viability, T/C [28] was 17%. It also gave a viability, T/C (second compound 10 µM, first compound 0.00316 µM) of 45.2%, a viability, T/C (second compound 10 µM, first compound 0.01 µM) of 42.5% and a viability, T/C [31] of 30.9%. It also gave a viability, T/C [32] of 23.6%, a viability, T/C [33] of 16.7% and a viability, T/C [34] of 12.2%.
C[C@@H](NC(=O)c1ncnc(N)c1Cl)c1ncc(C(=O)Nc2cc(C(F)(F)F)c(Cl)cn2)s1 + C#Cc1c(F)ccc2cc(O)cc(-c3ncc4c(N5CC6CCC(C5)N6)nc(OCC56CCCN5CC(F)C6)nc4c3F)c12 showed an IC50 (second compound 0.0316 µM) of over 10000 nM, an IC50 (second compound 0.1 µM) of over 10000 nM and an IC50 (second compound 0.316 µM) of over 10000 nM. The IC50 (second compound 1 µM) was over 10000 nM, the IC50 (second compound 3.16 µM) was 8750 nM and the IC50 (second compound 10 µM) was 3610 nM. The viability, T/C [1] was 92.9%, the viability, T/C [2] was 111% and the viability, T/C [3] was 111%. It also gave a viability, T/C [4] of 97%, a viability, T/C [5] of 92.4% and a viability, T/C [6] of 70.5%. It also gave a viability, T/C [7] of 104%, a viability, T/C [8] of 97.1% and a viability, T/C [9] of 94.8%. The viability, T/C [10] was 95.3%, the viability, T/C [11] was 93.6% and the viability, T/C [12] was 66.1%. For the same compound, the viability, T/C [13] was 94.2%, the viability, T/C [14] was 96.9% and the viability, T/C [15] was 93.4%. It also gave a viability, T/C [16] of 94.4%, a viability, T/C [17] of 91.6% and a viability, T/C [18] of 60.7%. It also gave a viability, T/C [19] of 94.3%, a viability, T/C [20] of 84.8% and a viability, T/C [21] of 99.3%. It also gave a viability, T/C [22] of 87%, a viability, T/C [23] of 92.8% and a viability, T/C [24] of 52.5%. The viability, T/C [25] was 78.6%, the viability, T/C [26] was 80.3% and the viability, T/C [27] was 79.2%. The viability, T/C [28] was 74.1%, the viability, T/C [29] was 69.8% and the viability, T/C [30] was 47.2%. The viability, T/C [31] was 63%, the viability, T/C [32] was 75.4% and the viability, T/C [33] was 71.7%. For the same compound, the viability, T/C [34] was 60.6%, the viability, T/C [35] was 53.4% and the viability, T/C [36] was 31.6%.
